The target in the assay is T1, furin (Homo sapiens, UniProt P09958).
T1 construct: recombinant soluble human furin
The assay is described as follows: fluorogenic protease assay with Pyr-RTKR-AMC substrate. The class given is biochemical.

Here are results for one compound from PMC10811921 (Virology Journal, 2024).

pIC50: −log10 of the molar value.

T1 sequence (P09958 108-715): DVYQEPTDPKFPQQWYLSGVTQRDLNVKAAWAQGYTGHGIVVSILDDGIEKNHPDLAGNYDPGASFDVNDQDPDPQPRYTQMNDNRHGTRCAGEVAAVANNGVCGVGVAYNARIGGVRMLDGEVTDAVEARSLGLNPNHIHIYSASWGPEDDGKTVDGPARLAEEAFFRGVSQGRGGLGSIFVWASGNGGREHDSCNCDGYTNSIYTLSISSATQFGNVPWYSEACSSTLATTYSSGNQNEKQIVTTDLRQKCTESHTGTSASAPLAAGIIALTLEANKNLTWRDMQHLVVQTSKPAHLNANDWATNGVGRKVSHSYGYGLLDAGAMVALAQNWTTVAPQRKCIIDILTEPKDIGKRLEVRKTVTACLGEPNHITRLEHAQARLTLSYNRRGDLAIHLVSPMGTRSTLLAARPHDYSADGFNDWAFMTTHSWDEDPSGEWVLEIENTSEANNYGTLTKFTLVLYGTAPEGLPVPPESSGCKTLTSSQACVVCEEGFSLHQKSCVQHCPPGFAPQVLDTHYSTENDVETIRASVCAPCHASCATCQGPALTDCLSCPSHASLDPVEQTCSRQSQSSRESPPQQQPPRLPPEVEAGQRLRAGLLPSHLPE

Usually pIC50 stands for −log10 of the IC50, conventionally taken in molar units. Higher therefore signals a low IC50. Compound `O=c1c(O)c(-c2ccc(O)c(O)c2)oc2cc(O)cc(O)c12` [QC, quercetin] had a pIC50 of about 3.94.
